Active and inactive are the calls of the source. No cut-off for these calls is given here.
Assays:
HMEC-1 [1] = assay: Antiangiogenic activity in HMEC1 cells assessed as inhibition of capillary-like network formation at 2.5 ug/ml after 18 hrs; assay type: functional, cell-based; details: Homo sapiens
HMEC-1 [2] = assay: Antiangiogenic activity in HMEC1 cells assessed as inhibition of capillary-like network formation at 1.5 ug/ml after 18 hrs; assay type: functional, cell-based; details: Homo sapiens
[3] = Cytotoxicity against HMEC1 cells by resazurin assay; assay type: cell-based; details: Homo sapiens, HMEC-1

Compound | Activity (HMEC-1 [1]) | Activity (HMEC-1 [2]) | IC50 [3]
C=C1C(=O)[C@@]23[C@@H]4OC5O[C@@]2(O)[C@@H](O)[C@@H]2C(C)(C)CC[C@@H](O)[C@]52[C@@H]3CC[C@@H]14 | Active | Active | 
C=C1C(=O)[C@]23[C@H](O)[C@H]1CC[C@H]2[C@@]12CO[C@]3(O)[C@@H](O)[C@@H]1C(C)(C)CC[C@@H]2O [ORIDONIN] | Active | Active | > 4 µg/mL

Source: ChEMBL document CHEMBL1146450, “Ponicidin and oridonin are responsible for the antiangiogenic activity of Rabdosia rubescens, a constituent of the herbal supplement PC SPES” (J Nat Prod, 2004)
